System: Micrococcus luteus ATCC 10240
Experiment: Inhibition of test bacteria by nisin produced in fermented poi
Format: cell-based
Details: nisin produced by Lactococcus lactis subspecies lactis ATCC 11454 in taro; test bacteria known to cause food spoilage
From the text: The nisin inhibits a test bacteria, Micrococcus luteus ATCC 10240, known to cause food spoilage. Thus, the Lactococcus lactis subspecies lactis ATCC 11454 grows in the taro and produces a bacteriocin therein.

Substance: nisin
- inhibition of test bacteria: inhibits

Source: US6753024B2, “Method for making a food preservative and for preserving food” (The United States of America as represented by the …, priority 2002, dated 2004)
